These results are taken from patent publication US20250346616A1 (DIZAL (JIANGSU) PHARMACEUTICAL CO., LTD., priority 2022, published 2025).

The structures appear in SMILES notation.

The subject of one assay is pMLC2. Briefly: Cellular PD assay, pMLC2 in PASMC (western blot). The assay is classed as cell-based. As to conditions: Human Pulmonary Artery Smooth Muscle Cells, 30 min incubation. The protocol: (§1) PASMC (Human Pulmonary Artery Smooth Muscle Cells) were grown in Smooth Muscle Cell Growth medium (Promocell #C-22162). The cells were resuspended at 3×10^5 cells per well in 6-well plate in Smooth Muscle Cell Growth medium (Promocell #C-22162) and incubated compound concentration range: (10000/1111/333/111/37/12.3/4.1/0.41/0 nM) for 30 min.
(§2) Cells were then placed on ice and washed with ice-cold PBS. Cell lysates were prepared with 2×SDS. Separate proteins by SDS-PAGE 2 hr, transfer of proteins form gel to membrane 90 min, Blocking the membrane with 5% milk 1 hr and incubation in primary antibody overnight at 4° C., Incubate the membrane in HRP-conjugated secondary antibody diluted in blocking buffer (1:2000) for 1 hour at room temperature. Detection using Amersham ECL plus western blotting detection system (LAS4000). The purified product was analysed by SDS PAGE and the amount of target protein calculated by gray scanning by Multi-Gauge V3.0 software.

A further assay concerns the target Recombinant ROCK1 (Homo sapiens (Human), UniProt Q13464). Briefly: Lance Ultra Kinase Assay, ROCK1 inhibition. In kind it is biochemical. As to conditions: ATP at Km, 30 min pre-incubation, 1 h reaction.
The test system of the next assay is pMYPT1. Briefly: Cellular PD assay, pMYPT1 in PASMC (western blot). The assay is classed as cell-based. As to conditions: Human Pulmonary Artery Smooth Muscle Cells, 30 min incubation. The protocol:
as §1, §2

A further assay has as its target Recombinant ROCK2 (Homo sapiens (Human), UniProt O75116). Briefly: Lance Ultra Kinase Assay, ROCK2 inhibition. In kind it is biochemical. As to conditions: ATP at Km, 30 min pre-incubation, 1 h reaction.

Sequence of Recombinant ROCK1 (Q13464 whole entry): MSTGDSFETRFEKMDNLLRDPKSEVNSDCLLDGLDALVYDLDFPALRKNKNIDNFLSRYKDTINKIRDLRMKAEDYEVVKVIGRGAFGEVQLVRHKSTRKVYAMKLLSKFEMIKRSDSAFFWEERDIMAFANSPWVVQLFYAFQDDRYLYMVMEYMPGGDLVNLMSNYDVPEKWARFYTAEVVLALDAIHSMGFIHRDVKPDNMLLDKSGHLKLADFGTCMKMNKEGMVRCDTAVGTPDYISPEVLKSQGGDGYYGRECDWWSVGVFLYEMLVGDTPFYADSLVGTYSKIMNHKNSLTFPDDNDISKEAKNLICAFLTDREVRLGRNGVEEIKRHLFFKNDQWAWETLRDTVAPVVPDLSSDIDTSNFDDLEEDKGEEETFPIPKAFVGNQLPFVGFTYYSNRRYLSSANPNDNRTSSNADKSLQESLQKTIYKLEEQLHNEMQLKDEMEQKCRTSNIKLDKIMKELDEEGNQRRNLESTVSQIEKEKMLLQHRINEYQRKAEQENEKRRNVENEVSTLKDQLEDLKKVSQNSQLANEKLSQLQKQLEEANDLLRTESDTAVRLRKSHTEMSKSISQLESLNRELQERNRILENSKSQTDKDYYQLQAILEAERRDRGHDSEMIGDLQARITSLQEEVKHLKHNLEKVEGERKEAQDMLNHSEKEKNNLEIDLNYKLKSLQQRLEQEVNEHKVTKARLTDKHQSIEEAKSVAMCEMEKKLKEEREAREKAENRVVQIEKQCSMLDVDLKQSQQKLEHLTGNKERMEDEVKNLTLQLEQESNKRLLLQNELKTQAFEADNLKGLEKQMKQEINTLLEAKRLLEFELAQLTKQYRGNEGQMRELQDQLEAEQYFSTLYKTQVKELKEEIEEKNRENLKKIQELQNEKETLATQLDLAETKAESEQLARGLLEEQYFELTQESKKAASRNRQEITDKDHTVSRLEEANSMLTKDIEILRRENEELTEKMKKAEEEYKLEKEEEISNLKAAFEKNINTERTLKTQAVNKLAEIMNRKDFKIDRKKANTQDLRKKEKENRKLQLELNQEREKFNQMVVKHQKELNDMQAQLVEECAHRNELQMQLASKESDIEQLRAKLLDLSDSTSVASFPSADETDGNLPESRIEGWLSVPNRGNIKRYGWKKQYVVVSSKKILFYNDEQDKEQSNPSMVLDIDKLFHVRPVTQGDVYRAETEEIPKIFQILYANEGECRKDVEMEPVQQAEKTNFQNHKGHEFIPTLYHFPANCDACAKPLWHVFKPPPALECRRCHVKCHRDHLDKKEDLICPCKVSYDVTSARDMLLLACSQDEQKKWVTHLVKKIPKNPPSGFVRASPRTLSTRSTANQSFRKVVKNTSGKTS
Sequence of Recombinant ROCK2 (O75116 whole entry): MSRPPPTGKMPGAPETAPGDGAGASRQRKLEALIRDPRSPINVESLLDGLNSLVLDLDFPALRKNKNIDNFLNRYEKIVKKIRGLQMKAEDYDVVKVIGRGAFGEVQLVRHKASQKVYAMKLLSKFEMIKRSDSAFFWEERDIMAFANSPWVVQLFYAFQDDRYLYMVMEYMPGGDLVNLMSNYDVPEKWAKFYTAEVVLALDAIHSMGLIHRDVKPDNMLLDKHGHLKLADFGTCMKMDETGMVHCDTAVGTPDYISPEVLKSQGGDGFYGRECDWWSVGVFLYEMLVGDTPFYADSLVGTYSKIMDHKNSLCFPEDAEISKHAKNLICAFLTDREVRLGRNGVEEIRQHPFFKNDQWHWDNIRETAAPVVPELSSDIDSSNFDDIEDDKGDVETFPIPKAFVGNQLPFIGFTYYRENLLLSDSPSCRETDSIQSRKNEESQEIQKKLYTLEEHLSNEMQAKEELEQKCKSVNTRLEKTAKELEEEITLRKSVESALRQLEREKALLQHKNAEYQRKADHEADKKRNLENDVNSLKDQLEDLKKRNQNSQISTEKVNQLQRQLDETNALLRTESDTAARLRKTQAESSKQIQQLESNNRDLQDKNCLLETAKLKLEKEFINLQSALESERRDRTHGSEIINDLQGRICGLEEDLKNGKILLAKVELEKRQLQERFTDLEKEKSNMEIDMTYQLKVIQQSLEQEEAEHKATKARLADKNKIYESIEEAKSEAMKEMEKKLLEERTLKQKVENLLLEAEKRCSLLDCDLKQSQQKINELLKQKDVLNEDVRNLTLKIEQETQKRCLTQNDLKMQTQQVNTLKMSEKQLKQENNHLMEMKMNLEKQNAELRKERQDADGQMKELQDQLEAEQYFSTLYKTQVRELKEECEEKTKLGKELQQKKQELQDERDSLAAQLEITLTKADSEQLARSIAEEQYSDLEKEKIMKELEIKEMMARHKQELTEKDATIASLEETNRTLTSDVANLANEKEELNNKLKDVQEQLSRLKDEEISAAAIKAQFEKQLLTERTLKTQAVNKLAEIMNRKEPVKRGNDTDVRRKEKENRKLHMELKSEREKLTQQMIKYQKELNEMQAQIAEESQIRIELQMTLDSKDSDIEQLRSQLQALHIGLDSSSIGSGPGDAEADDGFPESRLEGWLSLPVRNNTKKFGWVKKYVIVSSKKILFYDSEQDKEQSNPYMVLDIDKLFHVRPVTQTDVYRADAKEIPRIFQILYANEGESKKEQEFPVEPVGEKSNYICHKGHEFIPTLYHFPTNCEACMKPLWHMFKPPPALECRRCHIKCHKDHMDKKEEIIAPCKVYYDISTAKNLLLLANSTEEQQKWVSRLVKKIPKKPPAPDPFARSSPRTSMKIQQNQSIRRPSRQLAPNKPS
Method for Recombinant ROCK1: The inhibition potency of compounds against these enzymes was assessed using Lance Ultra Kinase Assay. In brief, recombinant kinases were pre-incubated in the presence or absence of compound at room temperature for 30 minutes. The reaction was initiated by the addition of the ATP (Km) and substrate peptide which could be phosphorylated by kinases in the reaction. After 1 h incubation, the reaction was stopped by the addition of the detection reagent mix containing EDTA. The fluorescence was measured at 615 nm and 665 nm, respectively with excitation wavelength at 320 nm. The calculated signal ratio of 665 nm/615 nm is proportional to the kinase activity.

Take `NC(C(=O)Nc1cccc2c(-c3cn[nH]c3)c[nH]c12)c1ccccc1` (racemic) [Example 7, N-(3-(1H-pyrazol-4-yl)-1H-indol-7-yl)-2-amino-2-phenylacetamide]: the IC50 in the assay with pMLC2 (PASMC, 0.5 h) was found to be 13 nM; on Recombinant ROCK1 it was 34 nM.

On to `NCC(C(=O)Nc1cccc2c(-c3cn[nH]c3)c[nH]c12)C1CCCCC1` (racemic) [Example 22, 3-amino-2-cyclohexyl-N-[3-(1H-pyrazol-4-yl)-1H-indol-7-yl]propanamide], for which the IC50 stood at 13 nM in the assay on pMLC2 (PASMC, 0.5 h); 1.1 nM on Recombinant ROCK1; 1.5 nM with pMYPT1 (PASMC, 0.5 h); 0.88 nM at Recombinant ROCK2.

Take `CN1CCN(CC(C(=O)Nc2cccc3c(-c4cn[nH]c4)c[nH]c23)c2ccccc2)CC1` (racemic) [Example 37, N-(3-(1H-pyrazol-4-yl)-1H-indol-7-yl)-3-(4-methylpiperazin-1-yl)-2-phenylpropanamide]: the IC50 with pMLC2 (PASMC, 0.5 h) stood at 8 nM; on Recombinant ROCK1 it was 0.71 nM; with pMYPT1 (PASMC, 0.5 h), 6.2 nM; at Recombinant ROCK2 it was 0.43 nM.

Regarding `CN1CCC(C(C(=O)Nc2cccc3c(-c4cn[nH]c4)c[nH]c23)c2ccccc2)CC1` (racemic) [Example 43, N-(3-(1H-pyrazol-4-yl)-1H-indol-7-yl)-2-(1-methylpiperidin-4-yl)-2-phenylacetamide], the IC50 was determined as 102 nM in the assay with pMLC2 (PASMC, 0.5 h); 1.3 nM at Recombinant ROCK1; 18 nM with pMYPT1 (PASMC, 0.5 h); 0.66 nM at Recombinant ROCK2.

`NCC(Cc1ccccc1)C(=O)Nc1cccc2c(-c3cn[nH]c3)c[nH]c12` (racemic) [Example 52, 3-amino-2-benzyl-N-[3-(1H-pyrazol-4-yl)-1H-indol-7-yl]propanamide]: the IC50 in the assay on pMLC2 (PASMC, 0.5 h) turned out to be 12 nM; on Recombinant ROCK1, 0.93 nM; at Recombinant ROCK2, 0.59 nM.

As for `N[C@@H](C(=O)Nc1cccc2c(-c3cn[nH]c3)c[nH]c12)c1cccnc1` (single isomer, unassigned) [Example 131, N-(3-(1H-pyrazol-4-yl)-1H-indol-7-yl)-2-amino-2-(pyridin-3-yl) acetamide], the concentration for half-maximal inhibition (IC50) came out at 22 nM at Recombinant ROCK1 and 12 nM at Recombinant ROCK2.

For the compound `N[C@H](C(=O)Nc1cccc2c(-c3cn[nH]c3)c[nH]c12)c1cccnc1` (single isomer, unassigned) [Example 132, N-(3-(1H-pyrazol-4-yl)-1H-indol-7-yl)-2-amino-2-(pyridin-3-yl) acetamide], the values for the IC50 on Recombinant ROCK1 and at Recombinant ROCK2 were 0.76 nM and 0.39 nM, respectively.

Consider `COc1cccc(C(CN2CCN(C)CC2)NC(=O)c2cccc3c(-c4cn[nH]c4)c[nH]c23)c1` (single isomer, unassigned) [Example 137, N-(1-(3-methoxyphenyl)-2-(4-methylpiperazin-1-yl)ethyl)-3-(1H-pyrazol-4-yl)-1H-indole-7-carboxamide], for which the IC50 on Recombinant ROCK1 amounted to 149 nM; on Recombinant ROCK2, 65 nM.

In the case of `COc1cccc(C(CN2CCN(C)CC2)NC(=O)c2cccc3c(-c4cn[nH]c4)c[nH]c23)c1` (single isomer, unassigned) [Example 138, N-(1-(3-methoxyphenyl)-2-(4-methylpiperazin-1-yl)ethyl)-3-(1H-pyrazol-4-yl)-1H-indole-7-carboxamide], the results for the half-inhibitory concentration (IC50) at Recombinant ROCK1 and at Recombinant ROCK2 were 73 nM and 23 nM, respectively.

As for `COc1cccc(C(CN)NC(=O)c2cccc3c(-c4cn[nH]c4)c[nH]c23)c1` (single isomer, unassigned) [Example 139, N-(2-amino-1-(3-methoxyphenyl)ethyl)-3-(1H-pyrazol-4-yl)-1H-indole-7-carboxamide], the figures for the half-inhibitory concentration (IC50) on Recombinant ROCK1 and at Recombinant ROCK2 were 5.5 nM and 3.1 nM, respectively.

As to `COc1cccc(C(NC(=O)c2cccc3c(-c4cn[nH]c4)c[nH]c23)C2CCN(C)CC2)c1` (single isomer, unassigned) [Example 141, N-((3-methoxyphenyl) (1-methylpiperidin-4-yl)methyl)-3-(1H-pyrazol-4-yl)-1H-indole-7-carboxamide], the IC50 stood at 331 nM on Recombinant ROCK1 and 163 nM on Recombinant ROCK2.

`COc1cccc(C(NC(=O)c2cccc3c(-c4cn[nH]c4)c[nH]c23)C2CCN(C)CC2)c1` (single isomer, unassigned) [Example 142, N-((3-methoxyphenyl) (1-methylpiperidin-4-yl)methyl)-3-(1H-pyrazol-4-yl)-1H-indole-7-carboxamide]: the IC50 on Recombinant ROCK1 stood at 113 nM; on Recombinant ROCK2 it was 37 nM.

`COc1ccc(C(CN)NC(=O)c2cccc3c(-c4cn[nH]c4)c[nH]c23)cc1` (single isomer, unassigned) [Example 144, N-(2-amino-1-(4-methoxyphenyl)ethyl)-3-(1H-pyrazol-4-yl)-1H-indole-7-carboxamide]: the results for the IC50 on Recombinant ROCK1 and on Recombinant ROCK2 were 60 nM and 32 nM, respectively.

Take `COc1ccc(C(CN)NC(=O)c2cccc3c(-c4cn[nH]c4)c[nH]c23)cc1` (single isomer, unassigned) [Example 145, N-(2-amino-1-(4-methoxyphenyl)ethyl)-3-(1H-pyrazol-4-yl)-1H-indole-7-carboxamide]: the IC50 amounted to 46 nM on Recombinant ROCK1 and 20 nM at Recombinant ROCK2.

`N[C@H](C(=O)Nc1cccc2c(-c3cn[nH]c3)c[nH]c12)c1ccccc1` [Example 9, (2S)-2-amino-2-phenyl-N-[3-(1H-pyrazol-4-yl)-1H-indol-7-yl]acetamide]: the half-inhibitory concentration (IC50) in the assay on pMLC2 (PASMC, 0.5 h) is 15 nM; at Recombinant ROCK1 it was 0.24 nM; in the assay with pMYPT1 (PASMC, 0.5 h), 2.2 nM.

Consider `CN1CCN(C[C@@H](C(=O)Nc2cccc3c(-c4cn[nH]c4)c[nH]c23)c2ccccc2)CC1` [Example 40], for which the IC50 at Recombinant ROCK1 amounted to 0.33 nM; on Recombinant ROCK2, 0.18 nM.

In the case of `COc1cccc([C@H](N)C(=O)Nc2cccc3c(-c4cn[nH]c4)c[nH]c23)c1` [Example 41, (2S)-2-amino-2-(3-methoxyphenyl)-N-[3-(1H-pyrazol-4-yl)-1H-indol-7-yl]acetamide], the figures for the 50% inhibitory concentration (IC50) on Recombinant ROCK1 and on Recombinant ROCK2 were 5.4 nM and 3.5 nM, respectively.

As to `NC[C@@H](Cc1ccccc1)C(=O)Nc1cccc2c(-c3cn[nH]c3)c[nH]c12` [Example 53, (2R)-3-amino-2-benzyl-N-[3-(1H-pyrazol-4-yl)-1H-indol-7-yl]propanamide], the concentration for half-maximal inhibition (IC50) at Recombinant ROCK1 came to 5.8 nM; at Recombinant ROCK2, 4.1 nM.

With `NC[C@H](Cc1ccccc1)C(=O)Nc1cccc2c(-c3cn[nH]c3)c[nH]c12` [Example 54, (2S)-3-amino-2-benzyl-N-[3-(1H-pyrazol-4-yl)-1H-indol-7-yl]propanamide], the half-maximal inhibitory concentration (IC50) is 0.18 nM at Recombinant ROCK1 and 0.09 nM on Recombinant ROCK2.

For `N[C@@H](Cc1c[nH]c2ccccc12)C(=O)Nc1cccc2c(-c3cn[nH]c3)c[nH]c12` [Example 109, (2S)-2-amino-3-(1H-indol-3-yl)-N-[3-(1H-pyrazol-4-yl)-1H-indol-7-yl]propanamide], the IC50 came out at 15 nM on Recombinant ROCK1 and 11 nM at Recombinant ROCK2.

In the case of `NC[C@@H](NC(=O)c1cncc2c(-c3cn[nH]c3)c[nH]c12)c1ccccc1` [Example 148, N-[(1S)-2-amino-1-phenyl-ethyl]-3-(1H-pyrazol-4-yl)-1H-pyrrolo[3,2-c]pyridine-7-carboxamide], the IC50 at Recombinant ROCK1 stood at 21 nM; on Recombinant ROCK2, 5.7 nM.

With `COc1cccc(C(CN)C(=O)Nc2ncnc3c(-c4cn[nH]c4)c[nH]c23)c1` (centres unmarked) [Example 154, N-(7-(1H-pyrazol-4-yl)-5H-pyrrolo[3,2-d]pyrimidin-4-yl)-3-amino-2-(3-methoxyphenyl)propanamide], half-maximal inhibition in the assay with pMLC2 (PASMC, 0.5 h) (IC50) was put at 8.3 nM.

With `NC[C@@H](C(=O)Nc1ccc2cnccc2c1)c1ccc(CO)cc1` [Netasudil-M1], the 50% inhibitory concentration (IC50) in the assay with pMLC2 was 14 nM; in the assay with pMYPT1, 22 nM.

Broadly, the IC50 is the concentration that inhibits the measured activity by half.
